Test [1] has as its target T1, High affinity nerve growth factor receptor (Homo sapiens, UniProt P04629). Nature of the test: Binding affinity to V305 residue of human recombinant TrkAIg2-NMR construct expressed in Escherichia coli by 1H-15N HSQC NMR spectroscopy.
Test [2] concerns the target T1, High affinity nerve growth factor receptor. Nature of the test: Binding affinity to F303 residue of human recombinant TrkAIg2-NMR construct expressed in Escherichia coli by 1H-15N HSQC NMR spectroscopy.
For test [3] the target is unchanged. Nature of the test: Displacement of [125I]NGF from full length human TrkA expressed in HEKN3S cells by gamma counting based radioligand competition assay. The class given is cell-based. (Displacement assays read how much labelled ligand stays bound in the presence of the test substance.)
Test [4] shares this target. Kind of test: Antagonist activity at full length glycosylated human TrkA expressed in HEKN3S cells assessed as reduction in NGF-induced ERK 42/44 phosphorylation incubated for 5 mins by automated immunofluorescence assay. The format is cell-based.
For test [5] the target is unchanged. Kind of test: Binding affinity to T292 residue of human recombinant TrkAIg2-NMR construct expressed in Escherichia coli by 1H-15N HSQC NMR spectroscopy.
For test [6] the target is unchanged. Nature of the test: Binding affinity to C345 residue of human recombinant TrkAIg2-NMR construct expressed in Escherichia coli by 1H-15N HSQC NMR spectroscopy.

T1 sequence (P04629 whole entry): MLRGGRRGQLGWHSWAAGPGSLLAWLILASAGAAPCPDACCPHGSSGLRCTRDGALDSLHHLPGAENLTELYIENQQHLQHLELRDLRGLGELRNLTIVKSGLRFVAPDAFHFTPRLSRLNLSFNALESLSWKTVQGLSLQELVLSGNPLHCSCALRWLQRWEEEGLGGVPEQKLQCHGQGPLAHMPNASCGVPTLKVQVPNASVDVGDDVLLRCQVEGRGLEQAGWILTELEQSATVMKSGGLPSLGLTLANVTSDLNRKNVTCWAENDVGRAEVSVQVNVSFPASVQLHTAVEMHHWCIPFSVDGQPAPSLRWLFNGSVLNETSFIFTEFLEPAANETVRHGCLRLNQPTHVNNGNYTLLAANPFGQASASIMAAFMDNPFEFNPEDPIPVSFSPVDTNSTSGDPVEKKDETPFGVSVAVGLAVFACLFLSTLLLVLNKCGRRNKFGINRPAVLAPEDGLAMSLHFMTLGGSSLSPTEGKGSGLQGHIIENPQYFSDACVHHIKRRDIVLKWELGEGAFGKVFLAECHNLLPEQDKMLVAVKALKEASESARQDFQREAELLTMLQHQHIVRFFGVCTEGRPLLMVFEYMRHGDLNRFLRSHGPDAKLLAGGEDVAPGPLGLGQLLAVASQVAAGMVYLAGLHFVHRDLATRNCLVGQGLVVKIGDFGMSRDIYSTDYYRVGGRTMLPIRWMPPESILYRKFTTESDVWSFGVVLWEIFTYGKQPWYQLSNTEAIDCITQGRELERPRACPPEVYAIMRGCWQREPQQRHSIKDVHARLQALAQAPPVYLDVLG

The term Kd denotes the equilibrium constant for the complex coming apart. As usually defined, the IC50 is the concentration at which inhibition is half-maximal. In general, EC50 refers to the concentration giving half of the maximal effect. Take `CN(C)CCC=C1c2ccccc2CCc2ccccc21` [AMITRIPTYLINE]: the Kd in test [1] was 2100 µM; in test [2], 2200 µM; in test [5], 1800 µM; in test [6], 2100 µM. Also, in test [3], the half-inhibitory concentration (IC50) turned out to be 60 µM. The EC50 in test [4] is 86 µM.

Source of the values: ChEMBL document CHEMBL3392975, “Design and nuclear magnetic resonance (NMR) structure determination of the second extracellular immunoglobulin tyrosine kinase A (TrkAIg2) domain construct for binding site elucidation in drug discovery” (J Med Chem, 2015).
